The numbers were not newly measured in US20100310668A1, “PHARMACEUTICAL COMPOSITIONS COMPRISING N-[2-(DIETHYLAMINO)ETHYL]-5-[(5-FLUORO-1,2-DIHYDRO-2-OXO-3H-INDOL-3-YLIDENE)METHYL]-2,4-DIMETHYL-1H-PYRROLE-3-CARBOXAMIDE” (ratiopharm GmbH, priority 2008, published 2010), which cites them from elsewhere.

SMILES strings stand for the structures.

For the data set the following is noted: solid (crystalline) form obtained by known manufacturing processes.

Turning to `CCN(CC)CCNC(=O)c1c(C)[nH]c(/C=C2\C(=O)Nc3ccc(F)cc32)c1C` [compound I, N-[2-(diethylamino)ethyl]-5-[(5-fluoro-1,2-dihydro-2-oxo-3H-indol-3-ylidene)methyl]-2,4-dimethyl-1H-pyrrole-3-carboxamide], the solubility in water result was “poor”.
